Test results as given in patent publication US20240327359A1, “3-ISOXAZOLIDINONE COMPOUND, PREPARATION METHOD, HERBICIDAL COMPOSITION AND APPLICATION THEREOF” (QINGDAO KINGAGROOT CHEMICAL COMPOUND CO., LTD., priority 2021, published 2024).
Read-outs that look alike come from different tables or passages of the source.

Columns and labels:
Type in all cases: in vivo
[1] = test system: Echinochloa crusgalli; experiment: Activity test of the compositions, post-emergence treatment by foliage spray; conditions: foliage (F)
Method: (§1) The desired active ingredient B was purchased from a reagent company or synthesized by a known method. The technical materials were all dissolved in acetone and diluted with an aqueous solution containing 0.10% emulsifier Tween-80 which were to be used immediately after dilution.
(§2) Weeds were cultivated by a pot culture method. […] Weed seeds with plump and uniform grains were selected, soaked in lukewarm water at 25° C. for 6 hours, and germinated in a 28° C. biochemical incubator (in darkness). The weed seeds that had just germinated were evenly placed on the surface of the soil and then covered with 0.5-1 cm soil according to the sizes of seeds.
(§3) The culture was carried out in a controllable sunlight greenhouse at 20 to 30° C., in natural light, and with relative humidity of 57% to 72%.
(§4) Each treatment was repeated 4 times. Four pots with 20 weed seeds per pot were treated each time.
(§5) The agents were used for only once in total in the experiment. In the stage of 1.5-2 leaves, the weeds were thinned out to maintain 10 weeds per pot. Ten weeds were kept in each treatment, then continued to be cultured until Echinochloa crus-galli var. zelayensis reached the stage of 2-3 leaves, Cirsium setosum reached the stage of 5-6 leaves, Galium aparine reached the stage of 3-4 whorl leaves, Amaranthus retroflexus reached the stage of 3-5 leaves, Echinochloa crusgalli, Lolium multiflorum and Digitaria sanguinalis reached the stage of 3 leaves with one leaf not fully expanding for further treatment.
(§6) The well-cultured test materials were evenly placed on a platform with an area of 0.5 m^2, and solution of agents was sprayed on the stems and leaves thereof by the 3WP-2000-type walking spray tower at a dosage of 450 kg/ha and at a spray pressure of 0.3 MPa. After all the solution was sprayed, the valve was closed. After 30 seconds, the door of the spray tower was opened, and the nutritional bowl was taken out. Then the valve was opened, and the spray tube was cleaned by spraying 50 ml of water. After the treatment, the weeds were routinely cultured in a greenhouse.
(§7) A method for investigating absolute numbers was employed. Whole seedlings of survival weeds were cut off with a blade along the soil surface, and the fresh weight of the weeds was weighed with an analytical balance. For dead weeds, the fresh weight thereof was zero.
(§8) The investigation was performed 21 days after the treatment for only once in total.

[2] = test system: Galium aparine; experiment: as above; conditions: foliage (F)
Method: as §1, §2, §4, §5, §6, §7, §8

[3] = test system: Amaranthus retroflexus; experiment: as above; conditions: foliage (F)
Method: as §1, §2, §3, §4, §5, §6, §7, §8

[4] = test system: Digitaria sanguinalis; experiment: as above
Method: as §1, §2, §3, §4, §5, §6, §7, §8

[5] = test system: Lolium multiflorum; experiment: as above; conditions: foliage (F)
Method: as §1, §2, §3, §4, §5, §6, §7, §8

[6] = test system: Echinochloa crus-galli var. zelayensis; experiment: as above; conditions: Echinochloa crusgalli var. zelayensis, foliage (F)
Method: as §1, §2, §3, §4, §5, §6, §7, §8

[7] = test system: weeds; experiment: Activity test of the compositions, soil sealing treatment; conditions: soil (S); for pest or weed control at 7.5 g/ha: B 0.5 g a.i./mu; for pest or weed control at 7.5 g/ha / pest or weed control at 15 g/ha: read-out: Control effect (%) of B applied alone (B)
Method: as §1
Weeds are cultivated in a controllable sunlight greenhouse at 20 to 30° C., in natural light, and with relative humidity of 57% to 72%. […] The test soil was filled quantitatively to ¾ of the pots and then watered from the bottom of the pots to completely wet the soil to saturation. The test weed seeds were accelerated to just germinate, and then evenly and quantitatively sowed on the surface, then covered with 0.5-1 cm soil according to the seed size, and ready for use 72 hours after sowing.
as §4
as §6, with “well-sowed” for “well-cultured”, “soil” for “stems and leaves thereof”, “water.” for “water. After the treatment, the weeds were routinely cultured in a greenhouse.”
as §7, §8

CCn1ncc(C(=O)c2ccc(S(C)(=O)=O)c(COCC(F)(F)F)c2Cl)c1OC(=O)c1cn(C)nc1C [fenpyrazone]
Control effect (%) of B applied alone (B) ([1]; B 1.5 g a.i./mu): 32.6% | Control effect (%) of B applied alone (B) ([1]; B 3 g a.i./mu): 50.7%

Nc1c(Cl)c(F)nc(OCC(=O)O)c1Cl [fluroxypyr]
Control effect (%) of B applied alone (B) ([2]; B 4 g a.i./mu): 29.4% | Control effect (%) of B applied alone (B) ([2]; B 8 g a.i./mu): 46.1%

CCCCCCCC(=O)Oc1c(Br)cc(C#N)cc1Br [bromoxynil octanoate]
Control effect (%) of B applied alone (B) ([3]; B 6 g a.i./mu): 38.2% | Control effect (%) of B applied alone (B) ([3]; B 12 g a.i./mu): 49.5%

CCCN(CCC)C(=O)SCc1ccccc1 [prosulfocarb]
Control effect (%) of B applied alone (B) ([2]; B 50 g a.i./mu): 40.5% | Control effect (%) of B applied alone (B) ([2]; B 100 g a.i./mu): 56.1%

COc1c(Cl)ccc(-c2nc(C(=O)O)c(Cl)c(N)c2F)c1F [florpyrauxifen]
Control effect (%) of B applied alone (B) ([1]; B 0.5 g a.i./mu): 22.5% | Control effect (%) of B applied alone (B) ([1]; B 1 g a.i./mu): 41.3%

CS(=O)(=O)c1ccc(C(=O)C2C(=O)CCCC2=O)c([N+](=O)[O-])c1 [mesotrione]
Control effect (%) of B applied alone (B) ([4]; foliage (F), B 2.5 g a.i./mu): 38.6% | Control effect (%) of B applied alone (B) ([4]; foliage (F), B 5 g a.i./mu): 52.1%

Cn1[nH]c(C2CC2)c(C(=O)c2ccc(C(F)(F)F)c(N3CCCCC3=O)c2Cl)c1=O [cypyrafluone]
Control effect (%) of B applied alone (B) ([5]; B 3 g a.i./mu): 26.7% | Control effect (%) of B applied alone (B) ([5]; B 6 g a.i./mu): 38.9%

CCC[S@@+]([O-])c1c(C(F)(F)F)ccc(C(=O)Nc2nnc(C)o2)c1F
Control effect (%) of B applied alone (B) ([1]; B 1.5 g a.i./mu): 33.8% | Control effect (%) of B applied alone (B) ([1]; B 3 g a.i./mu): 49.7%

Cc1cc(C)n(Cc2c(S(C)(=O)=O)ccc(C(=O)c3c(C)nn(C)c3OC(=O)c3cn(C)nc3C)c2Cl)n1 [tripyrasulfone]
Control effect (%) of B applied alone (B) ([1]; B 4 g a.i./mu): 26.7% | Control effect (%) of B applied alone (B) ([1]; B 8 g a.i./mu): 46.1%

COc1c(Cl)ccc(-c2cc(N)c(Cl)c(C(=O)O)n2)c1F [halauxifen]
Control effect (%) of B applied alone (B) ([2]; B 0.2 g a.i./mu): 26.4% | Control effect (%) of B applied alone (B) ([2]; B 0.4 g a.i./mu): 37.2%

CS(=O)(=O)NC(=O)c1cc(Oc2ccc(C(F)(F)F)cc2Cl)ccc1[N+](=O)[O-] [fomesafen]
Control effect (%) of B applied alone (B) ([3]; B 4 g a.i./mu): 38.1% | Control effect (%) of B applied alone (B) ([3]; B 8 g a.i./mu): 47.5%

COc1ncc(F)c2nc(S(=O)(=O)Nc3c(F)cccc3F)nn12 [florasulam]
Control effect (%) of B applied alone (B) ([2]; B 0.1 g a.i./mu): 31.5% | Control effect (%) of B applied alone (B) ([2]; B 0.2 g a.i./mu): 44.1%

Cc1nn(C)cc1C(=O)Oc1c(C(=O)c2ccc(C(F)(F)F)cc2S(C)(=O)=O)c(C)nn1C [bipyrazone]
Control effect (%) of B applied alone (B) ([2]; B 0.75 g a.i./mu): 33.6% | Control effect (%) of B applied alone (B) ([2]; B 1.5 g a.i./mu): 46.2%

CCC(=O)Nc1ccc(Cl)c(Cl)c1 [propanil]
Control effect (%) of B applied alone (B) ([6]; B 16 g a.i./mu): 16.8% | Control effect (%) of B applied alone (B) ([6]; B 32 g a.i./mu): 31.2%

COc1cnc(OC)n2nc(NS(=O)(=O)c3c(OCC(F)F)cccc3C(F)(F)F)nc12 [penoxsulam]
Control effect (%) of B applied alone (B) ([1]; B 0.5 g a.i./mu): 52.7% | Control effect (%) of B applied alone (B) ([1]; B 1 g a.i./mu): 61.7%

Cc1cc(Cl)ccc1OCC(=O)O [MCPA]
Control effect (%) of B applied alone (B) ([2]; B 20 g a.i./mu): 33.1% | Control effect (%) of B applied alone (B) ([2]; B 40 g a.i./mu): 46.7%

COc1c(Cl)ccc(Cl)c1C(=O)O [dicamba]
Control effect (%) of B applied alone (B) ([2]; B 4 g a.i./mu): 28.6% | Control effect (%) of B applied alone (B) ([2]; B 8 g a.i./mu): 39.7%

C[C@@H](Oc1nc(F)c(Cl)c(N)c1Cl)C(=O)OCC1CCCO1 (some centres unmarked)
Control effect (%) of B applied alone (B) ([5]; B 8 g a.i./mu): 30.7% | Control effect (%) of B applied alone (B) ([5]; B 16 g a.i./mu): 44.1%

COC(=O)CCNC(=O)C(C)Sc1cc(-n2c(=O)cc(C(F)(F)F)n(C)c2=O)c(F)cc1Cl (centres unmarked) [tiafenacil]
Control effect (%) of B applied alone (B) ([1]; B 0.5 g a.i./mu): 33.4% | Control effect (%) of B applied alone (B) ([1]; B 1 g a.i./mu): 45.9%

COc1cc(OC)nc(NC(=O)NS(=O)(=O)c2ncccc2C(=O)N(C)C)n1 [nicosulfuron]
Control effect (%) of B applied alone (B) ([4]; foliage (F), B 1 g a.i./mu): 29.7% | Control effect (%) of B applied alone (B) ([4]; foliage (F), B 2 g a.i./mu): 47.6%

COc1cc(OC)nc(Oc2cccc(Oc3nc(OC)cc(OC)n3)c2C(=O)O)n1 [bispyribac]
Control effect (%) of B applied alone (B) ([1]; B 0.6 g a.i./mu): 30.7% | Control effect (%) of B applied alone (B) ([1]; B 1.2 g a.i./mu): 42. %

O=C(O)c1c(Cl)ccc2cc(Cl)cnc12 [quinclorac]
Control effect (%) of B applied alone (B) ([6]; B 4 g a.i./mu): 22.5% | Control effect (%) of B applied alone (B) ([6]; B 8 g a.i./mu): 41.4%

CC(C)c1nn(C(=O)NC(C)(C)C)c(=O)n1N [amicarbazone]
Control effect (%) of B applied alone (B) ([1]; B 4 g a.i./mu): 29.8% | Control effect (%) of B applied alone (B) ([1]; B 8 g a.i./mu): 37.2%

Cc1ccc2c(c1)[C@H](Nc1nc(N)nc(C(C)F)n1)[C@@H](C)C2 (some centres unmarked) [indaziflam]
Control effect (%) of B applied alone (B) ([4]; foliage treatment (F), B at 0.8 g a.i./mu, 21 days): 36.4% | Control effect (%) of B applied alone (B) ([4]; foliage treatment (F), B at 1.6 g a.i./mu, 21 days): 52.1%

COC(=O)c1ccc(CNS(C)(=O)=O)cc1S(=O)(=O)NC(=O)Nc1nc(OC)cc(OC)n1 [mesosulfuron-methyl]
Control effect (%) of B applied alone (B) ([5]; B 0.25 g a.i./mu): 31.5% | Control effect (%) of B applied alone (B) ([5]; B 0.5 g a.i./mu): 44.3%

COc1cc(OC)nc(NC(=O)NS(=O)(=O)c2c(C(=O)O)c(Cl)nn2C)n1 [halosulfuron]
pest or weed control at 7.5 g/ha ([7]; Veronica polita, Veronica didyma): 34.8% | pest or weed control at 15 g/ha ([7]; Veronica polita, Veronica didyma, B 1 g a.i./mu): 54.6%

fluridone
Control effect (%) of B applied alone (B) ([7]; Veronica didyma, B 1 g a.i./mu): 37.2% | Control effect (%) of B applied alone (B) ([7]; Veronica didyma, B 2 g a.i./mu): 50.4%

C#CCN1C(=O)COc2cc(F)c(N3C(=O)C4=C(CCCC4)C3=O)cc21 [flumioxazin]
pest or weed control at 7.5 g/ha ([7]; Echinochloa crus-galli, Echinochloa crusgalli): 32.8% | pest or weed control at 15 g/ha ([7]; Echinochloa crus-galli, Echinochloa crusgalli, B 1 g a.i./mu): 45.1%
